We go through 1 molecule from patent publication US11318115B2, “Oral pharmaceutical composition of Tecovirimat and preparation method thereof” (priority 2016, dated 2022).

≈ marks a conversion by molar mass, not a printed value. Like-named read-outs stand apart in the source and are kept apart here.

The nature of one data set: physchem. Particulars: aqueous with cosolvent or surfactant or cyclodextrin, thermodynamic from solid. The class given is physicochemical. On the procedure:
Excess amounts of Tecovirimat (bulk drug powder) was added to an aqueous solution comprising meglumine and cyclodextrin at different ratios relative to each other to form a suspension. The suspension was placed in a constant-temperature incubation shaker, and was shaken at a temperature of 25±1° C., 37±1° C. and 60±1° C. for 72 h. After reaching equilibrium, the suspension was filtered through a 0.45 μm hydrophilic filter membrane to obtain a filtrate. After the filtrate was properly diluted with an acetonitrile-water (50:50, v/v) solution, the absorbance was measured at 224 nm, and the solubility of Tecovirimat was calculated. The corresponding solubility curve was plotted by using the solubility of the drug as the ordinate, and using the concentration of the cyclodextrin and/or meglumine as the abscissa.

For data set [1] the following is noted: cited from earlier work.
Data set [2] can be described thus: In vitro dissolution in water (ChP 2015, 0931 Method II, 100 rpm). The class given is physicochemical. Particulars: within 60 min, 1000 ml water, FIG. 2. On the procedure: Experimental method: 1000 ml water was used as dissolution medium, and according to the Dissolution Test (Pharmacopoeia of the People's Republic of China (2015 Edition), General Notices, 0931 Method II), the operation was carried out at a rotation rate of 100 rpm, and a solution (5 ml) was taken at 5, 10, 15, 30, 45, and 60 min, respectively, and was filtrated through a 0.45 μm microporous membrane, to obtain a test solution; and Tecovirimat (bulk drug powder, 5 mg) as a reference was accurately weighed, and placed in a 100 ml volumetric flask, and the medium for dissolution was added to a final volume of 100 ml, thereby obtaining a reference solution. By high performance liquid chromatography, the peak area of the test solution and the reference solution were measured at 224 nm. The dissolution amounts at different time points was calculated by an external standard method, and the cumulative dissolution curves were plotted.

The conditions of data set [3]: cited from earlier work. The source holds these as a separate data set.

Broadly, the solubility is how much of the substance goes into solution per volume.

In the case of `O=C(NN1C(=O)[C@@H]2[C@@H]3C=C[C@@H]([C@H]4C[C@@H]34)[C@@H]2C1=O)c1ccc(C(F)(F)F)cc1` [Tecovirimat, 4-trifluoromethyl-N-(3,3a, 4,4a, 5,5a, 6,6a-octahydro-1,3-dioxo-4,6-ethenocycloprop [f]isoindol-2 (1H)-yl)-benzamide], the solubility was 5 to 15 mg/mL (≈ 13.3 to 39.9 mM) in “physchem” (25 °C, cyclodextrin 20% (w/v) to 40% (w/v) alone, 25° C., FIG. 1(A), read-out: solubility of Tecovirimat in water); 2 to 7 mg/mL (≈ 5.31 to 18.6 mM) in the data set “physchem” (25 °C, meglumine 2% (w/v) to 10% (w/v) alone, 25° C., FIG. 1(B), read-out: solubility of Tecovirimat in water); 20 to 80 mg/mL in “physchem” (25 °C, meglumine 5% (w/v) plus cyclodextrin 20% (w/v) to 40% (w/v), 25° C., FIG. 1(C), read-out: solubility of Tecovirimat in water); 5 to 18 mg/mL (≈ 13.3 to 47.8 mM) in the data set “physchem” (37 °C, cyclodextrin 20% (w/v) to 40% (w/v) alone, 37° C., FIG. 1(A), read-out: solubility of Tecovirimat in water); 2 to 9 mg/mL (≈ 5.31 to 23.9 mM) in “physchem” (37 °C, meglumine 2% (w/v) to 10% (w/v) alone, 37° C., FIG. 1(B), read-out: solubility of Tecovirimat in water); 30 to 100 mg/mL in the data set “physchem” (37 °C, meglumine 5% (w/v) plus cyclodextrin 20% (w/v) to 40% (w/v), 37° C., FIG. 1(C), read-out: solubility of Tecovirimat in water). Also, the solubility was 5 to 20 mg/mL (≈ 13.3 to 53.1 mM) in “physchem” (60 °C, cyclodextrin 20% (w/v) to 40% (w/v) alone, 60° C., FIG. 1(A), read-out: solubility of Tecovirimat in water); 2 to 10 mg/mL (≈ 5.31 to 26.6 mM) in “physchem” (60 °C, meglumine 2% (w/v) to 10% (w/v) alone, 60° C., FIG. 1(B), read-out: solubility of Tecovirimat in water); 50 to 150 mg/mL in “physchem” (60 °C, meglumine 5% (w/v) plus cyclodextrin 20% (w/v) to 40% (w/v), 60° C., FIG. 1(C), read-out: solubility of Tecovirimat in water); at most 152 mg/mL in the data set “physchem” (ternary solubilizing composition: Tecovirimat, cyclodextrin, additive (e.g. meglumine), read-out: maximal solubility); 1.5 to 11 mg/mL in data set [3] (20%-40% (w/v) hydroxypropyl-β-cyclodextrin (HP-β-CD), 37° C.). The water solubility result in data set [1] is on record as “less than 0.003 mg/ml”. The molecule further registered a dissolution in data set [2] below 5%. Further, the maximal solubility in data set [3] (40% (w/v) HP-β-CD, 70° C.) was 21.23 mg/mL. The “effect of cosolvent (PEG400) or nonionic surfactant (Tween 80) on solubility in HP-β-CD” value in data set [3] (HP-β-CD plus PEG400 or Tween 80) is reported as “cannot further improve the solubility”.
